Reference: patent publication US10183019B2, “Treatment of cancer with dihydropyrazino-pyrazines” (Signal Pharmaceuticals, LLC, priority 2013, dated 2019)

What was measured:
[1] = system: patient-derived GBM cell line 206; test: Combination effect of Compound 1 and TMZ on cell survival (fractional product); format: cell-based; conditions: 168 h, 7 days, read-out: % Actual inh.
Description: (§1) TMZ is an alkylating agent that delivers a methyl group to the purine bases of DNA (O^6-guanine; N^7-guanine and N^3-adenine). The cytotoxic lesion, O^6-methylguanine (O^6-MeG), caused by TMZ can be directly removed by methylguanine methyltransferase (MGMT) via direct repair and can also activate mechanisms of mismatch repair (MMR). Futile cycles of MMR lead to the formation of double-stranded DNA breaks and activation of the DNA-PK mediated mechanisms of double-stranded break repair.
(§2) Tumorspheres grown under tumorsphere culture conditions were harvested, dissociated into single cells, and plated at 5,000 cells/well in 96-well plates. […] When the value of the column % actual inhibition divided by % inhibition calculated based on summation is >1=synergism, ˜1=summation, <1=antagonism.

[2] = system: patient-derived GBM cell line 217; test: as above; format: cell-based; conditions: 168 h, 7 days, read-out: % Actual inh.
Description: as §1, §2

[3] = system: patient-derived GBM cell line 157; test: Gliomasphere Cell Number Assay; format: cell-based; conditions: cell line 157, Primary, MGMT status −; 50% cell numbers vs DMSO control, Day 2 to Day 9; read-out: IC50 Cell Survival
Experimental: (§3) Gliomasphere Cell Number Assay. Primary patient-derived GBM tumor samples were dissociated and plated under culture conditions that produce gliomaspheres (i.e. DMEM/F12 medium supplemented with B27, 20 ng/mL bFGF, 50 ng/mL EGF, penicillin/streptomycin, L-glutamine and 5 ug/mL heparin). Cells were plated at a density of 5000 cells/well and allowed to acclimate overnight at 37° C. The Dihydropyrazino-Pyrazine Compounds were added to the cultures on Day 2 and cells were kept in culture until Day 9. On Day 9, the cells were fixed with PFA/methanol and the next day assessed for cell number, using for example, SYTO-9 fluorescent DNA dye. Plates were read 48 h later with a laser scanning imager.

[4] = system: patient-derived GBM cell line 347; test: Gliomasphere Cell Number Assay; format: cell-based; conditions: cell line 347, Recurrent, MGMT status −; 50% cell numbers vs DMSO control, Day 2 to Day 9; read-out: IC50 Cell Survival
Experimental: as §3

[5] = system: patient-derived GBM cell line 336; test: Gliomasphere Cell Number Assay; format: cell-based; conditions: cell line 336, Recurrent, MGMT status +; 50% cell numbers vs DMSO control, Day 2 to Day 9; read-out: IC50 Cell Survival
Experimental: as §3

[6] = system: patient-derived GBM cell line 296; test: Gliomasphere Cell Number Assay; format: cell-based; conditions: cell line 296, Recurrent, MGMT status −; 50% cell numbers vs DMSO control, Day 2 to Day 9; read-out: IC50 Cell Survival
Experimental: as §3

[7] = system: patient-derived GBM cell line 250; test: Gliomasphere Cell Number Assay; format: cell-based; conditions: cell line 250, Recurrent, MGMT Unkn/Highly Expressed; 50% cell numbers vs DMSO control, Day 2 to Day 9; read-out: IC50 Cell Survival
Experimental: as §3

[8] = system: patient-derived GBM cell line 254; test: Gliomasphere Cell Number Assay; format: cell-based; conditions: cell line 254, Recurrent; 50% cell numbers vs DMSO control, Day 2 to Day 9; read-out: IC50 Cell Survival
Experimental: as §3

[9] = system: patient-derived GBM cell line 206; test: Gliomasphere Cell Number Assay; format: cell-based; conditions: cell line 206, Recurrent, MGMT Unkn/Highly Expressed; 50% cell numbers vs DMSO control, Day 2 to Day 9; read-out: IC50 Cell Survival
Experimental: as §3

[10] = system: patient-derived GBM cell line 378; test: Gliomasphere Cell Number Assay; format: cell-based; conditions: cell line 378, Recurrent, MGMT status −; 50% cell numbers vs DMSO control, Day 2 to Day 9; read-out: IC50 Cell Survival
Experimental: as §3

[11] = system: patient-derived GBM cell line 217; test: Gliomasphere Cell Number Assay; format: cell-based; conditions: cell line 217, Primary; 50% cell numbers vs DMSO control, Day 2 to Day 9; read-out: IC50 Cell Survival
Experimental: as §3

[12] = system: patient-derived GBM cell line 277; test: Gliomasphere Cell Number Assay; format: cell-based; conditions: cell line 277, Secondary/Recurrent; 50% cell numbers vs DMSO control, Day 2 to Day 9; read-out: IC50 Cell Survival
Experimental: as §3

[13] = system: HF2354 PDX (GBM neurosphere line HF2354); test: Patient derived xenograft (PDX) survival study; format: in vivo, nude mouse; conditions: HF2354 PDX in nude mice; 10 mg/kg oral gavage once a day, Monday through Friday
Experimental: FIG. 2: Kaplan-Meier survival analysis for HF2354 PDX line (end of study). Treatment schedule for survival (Rx) and target hit (TH) are indicated.
Immunocompromised mice (nude mouse NCRNU-M, TACONIC) were implanted with a GBM neurosphere line derived from fresh surgical specimens. The cell line was characterized as following:
Patient derived xenograft (PDX) treatments started four weeks prior to when the first animal was expected to become symptomatic. […] Control animals were administered vehicle alone. Target hit cohorts were treated with one dose of each compound and sacrificed 2 and 24 h later (n=3/group). As necessary, fluids and supplemental food were administered to ameliorate weight loss.

[14] = system: patient-derived GBM cell line 308; test: Gliomasphere Formation Assay; format: cell-based; conditions: cell line 308, Recurrent, MGMT Unkn/Highly Expressed; 50% sphere formation vs DMSO control
Experimental: (§4) Primary patient-derived GBM tumor samples were dissociated and plated under culture conditions (i.e. DMEM/F12 medium supplemented with B27, 20 ng/mL bFGF, 50 ng/mL EGF, penicillin/streptomycin, L-glutamine and 5 ug/mL heparin) that produce gliomaspheres. Cells were plated at a density of 50 cells per well and allowed to acclimate overnight at 37° C. The Dihydropyrazino-Pyrazine Compounds were added to the cultures on Day 2 and replenished every 7 days. EGF and FGF were also replenished every 7 days. The cells were fixed with PFA/methanol when the smallest sphere was greater than 60 microns, typically 3-5 weeks. The cells were fixed with PFA/methanol and the next day assessed for cell number, using for example, SYTO-9 fluorescent DNA dye. Plates were read 48 h later with a laser scanning imager.

[15] = system: patient-derived GBM cell line 296; test: Gliomasphere Formation Assay; format: cell-based; conditions: cell line 296, Recurrent, MGMT status −; 50% sphere formation vs DMSO control
Experimental: as §4

[16] = system: patient-derived GBM cell line 217; test: Gliomasphere Formation Assay; format: cell-based; conditions: cell line 217, Primary; 50% sphere formation vs DMSO control
Experimental: as §4

[17] = system: patient-derived GBM cell line 350; test: Gliomasphere Formation Assay; format: cell-based; conditions: cell line 350, Recurrent; 50% sphere formation vs DMSO control
Experimental: as §4

[18] = system: patient-derived GBM cell line 245; test: Gliomasphere Formation Assay; format: cell-based; conditions: cell line 245, Recurrent; 50% sphere formation vs DMSO control
Experimental: as §4

Cn1nnc2c(C(N)=O)ncn2c1=O [TMZ, Temozolomide]
inhibition at 25 µM ([1]; TMZ 25 μM alone): 11.4% | inhibition at 50 µM ([1]; TMZ 50 μM alone): 0% | inhibition at 100 µM ([1]; TMZ 100 μM alone): 0% | inhibition at 200 µM ([1]; TMZ 200 μM alone): 4.3% | inhibition at 25 µM ([2]; TMZ 25 μM alone): 69% | inhibition at 50 µM ([2]; TMZ 50 μM alone): 73% | inhibition at 100 µM ([2]; TMZ 100 μM alone): 77%

CO[C@H]1CC[C@H](N2C(=O)CNc3ncc(-c4ccc(C(C)(C)O)nc4)nc32)CC1 [Compound 2, 7-(6-(2-hydroxypropan-2-yl)pyridin-3-yl)-1-((1r,4r)-4-methoxycyclohexyl)-3,4-dihydropyrazino-[2,3-b]pyrazin-2(1H)-one]
IC50 [3]: 171 nM | IC50 [4]: 173 nM | IC50 [5]: 866 nM | IC50 [6]: 257 nM | IC50 [7]: 50.7 nM | IC50 [8]: 216 nM | IC50 [9]: 118 nM | IC50 [10]: 156 nM | IC50 [11]: 96.3 nM | IC50 [12]: 106 nM | survival (Kaplan-Meier) [13]: No effect in survival | IC50 [14]: 76.7 nM | IC50 [15]: 1700 nM | IC50 [16]: 68.9 nM | IC50 [17]: 244 nM | IC50 [18]: 65.1 nM
